Test results: patent US20230107642A1 (Erasca, Inc., priority 2020, published 2023)

Biological target: T1, Cys12 of the KRAS 4B G12C protein (Homo sapiens, UniProt P01116, G12C)
T1 construct: This protein contained 188 amino acids in total, including an N-terminal 6-Histidine tag; made in house; host or cells: E. coli BL21
Test: In vitro covalent adduct formation (CAF) assay, LC-MS intact mass
Assay type: binding
Conditions: 10 uM compound, 60 min
Procedure: This Example provides a protocol for assessing covalent adduct formation (CAF) between the compounds of the present application and KRAS.
In vitro covalent adduct formation assay: Covalent adduct formation (CAF) reactions between Cys12 of the KRAS 4B G12C protein and some of the compounds of Tables 1 to 4 were measured in vitro using liquid chromatography-mass spectrometry (LC-MS).
Recombinant Human KRAS 4B protein containing the G12C mutation was used in compound screening experiments. This protein contained 188 amino acids in total, including an N-terminal 6-Histidine tag, followed by a Tobacco Etch Virus (TEV) tag, followed by residues 1-169 of the native KRAS 4B sequence. The exact mass of the protein was 21,310 Da as determined by mass spectrometry. The full amino acid sequence is shown below: […]
The recombinant protein was expressed in E. coli BL21 cells and purified using affinity chromatography via a Ni-NTA column. Protein stocks were nucleotide-exchanged to >95% GDP, concentrated to 4 mg/mL, and stored at −80° C. in storage buffer (50 mM HEPES pH 7.4, 50 mM NaCl, 5 mM MgCl2, 1 mM DTT). Pure KRAS 4B G12C protein was diluted to a concentration of 5 μM in Tris Buffered Saline, pH 7.4. The compounds were dissolved in DMSO and added to the diluted protein to make a 10 μM concentration. The total DMSO concentration in the reaction was 4%. The reaction was mixed by pipetting and incubated at 22° C. for one hour. Aliquots of the reaction were taken over time and diluted 2:1 in 0.1% formic acid. The intact mass of the protein samples was measured by LC-MS using a QExactive+ mass spectrometer (Thermo Scientific). An amount of 500 ng total protein was injected onto a C8 reverse phase column, eluted with a seven-minute gradient of 30%-90% acetonitrile/0.1% formic acid, and analyzed for intact mass by the mass spectrometer. Adducts identified were confirmed to be within 1 Dalton of the expected mass, and the relative ratios of free:adduct protein were used to quantify the percentage of protein bound by the compound. CAF reactions were run in duplicate, with a typical variability of ±5%.

Row | SMILES | % CAF 10 uM @ 60 min
1 | C=CC(=O)N1CCN(c2nc(=O)n3c4c(c(-c5ccc(F)cc5F)c(C(F)(F)F)cc24)SC[C@@H]3CN2C[C@@H]3C[C@H]2CO3)CC1 (atropisomer, axis not shown) [Example 1306, (3S,10S)-3-(((1S,4S)-2-oxa-5-azabicyclo[2.2.1]heptan-5-yl)methyl)-7-(4-acryloylpiperazin-1-yl)-10-(2,4-difluorophenyl)-9-(trifluoromethyl)-2,3-dihydro-5H-[1,4]thiazino[2,3,4-ij]quinazolin-5-one] | 96.8%
2 | C=CC(=O)N1C[C@H](C)N(c2nc(=O)n3c4c(c(-c5cc(Cl)c(F)cc5F)c(C(F)(F)F)cc24)SC[C@@H]3CN2CCC3(CC2)COC3)C[C@H]1C (atropisomer, axis not shown) [Example 1312, (3S,10S)-3-((2-oxa-7-azaspiro[3.5]nonan-7-yl)methyl)-7-((2S,5R)-4-acryloyl-2,5-dimethylpiperazin-1-yl)-10-(5-chloro-2,4-difluorophenyl)-9-(trifluoromethyl)-2,3-dihydro-5H-[1,4]thiazino[2,3,4-ij]quinazolin-5-one] | 72%
3 | C=CC(=O)N1C[C@H](C)N(c2nc(=O)n3c4c(c(-c5cc(Cl)c(F)cc5F)c(C(F)(F)F)cc24)SC[C@@H]3CN2CCC3(CC2)COC3)C[C@H]1C (atropisomer, axis not shown) [Example 1313, (3S,10R)-3-((2-oxa-7-azaspiro[3.5]nonan-7-yl)methyl)-7-((2S,5R)-4-acryloyl-2,5-dimethylpiperazin-1-yl)-10-(5-chloro-2,4-difluorophenyl)-9-(trifluoromethyl)-2,3-dihydro-5H-[1,4]thiazino[2,3,4-ij]quinazolin-5-one] | 96.4%
4 | C=CC(=O)N1C[C@H](C)N(c2nc(=O)n3c4c(c(-c5ccc(F)cc5F)c(C(F)(F)F)cc24)SC[C@@H]3CN2CCC3(CC2)COC3)C[C@H]1C (atropisomer, axis not shown) [Example 1314, (3S,10S)-3-((2-oxa-7-azaspiro[3.5]nonan-7-yl)methyl)-7-((2S,5R)-4-acryloyl-2,5-dimethylpiperazin-1-yl)-10-(2,4-difluorophenyl)-9-(trifluoromethyl)-2,3-dihydro-5H-[1,4]thiazino[2,3,4-ij]quinazolin-5-one] | 95.8%
5 | C=CC(=O)N1C[C@H](C)N(c2nc(=O)n3c4c(c(-c5ccc(F)cc5F)c(C(F)(F)F)cc24)SC[C@@H]3CN2CCC3(CC2)COC3)C[C@H]1C (atropisomer, axis not shown) [Example 1315, (3S,10R)-3-((2-oxa-7-azaspiro[3.5]nonan-7-yl)methyl)-7-((2S,5R)-4-acryloyl-2,5-dimethylpiperazin-1-yl)-10-(2,4-difluorophenyl)-9-(trifluoromethyl)-2,3-dihydro-5H-[1,4]thiazino[2,3,4-ij]quinazolin-5-one] | 96.3%
6 | C=CC(=O)N1CCN(c2nc(=O)n3c4c(c(-c5ccc(F)cc5F)c(C(F)(F)F)cc24)SC[C@@H]3CN2CCN(CC)CC2)CC1 (atropisomer, axis not shown) [Example 1317, (3S,10S)-7-(4-acryloylpiperazin-1-yl)-10-(2,4-difluorophenyl)-3-((4-ethylpiperazin-1-yl)methyl)-9-(trifluoromethyl)-2,3-dihydro-5H-[1,4]thiazino[2,3,4-ij]quinazolin-5-one] | 98.3%
7 | C=CC(=O)N1CCN(c2nc(=O)n3c4c(c(-c5ccc(F)cc5F)c(C(F)(F)F)cc24)SC[C@@H]3CN2CCN(CC)CC2)CC1 (atropisomer, axis not shown) [Example 1318, (3S,10R)-7-(4-acryloylpiperazin-1-yl)-10-(2,4-difluorophenyl)-3-((4-ethylpiperazin-1-yl)methyl)-9-(trifluoromethyl)-2,3-dihydro-5H-[1,4]thiazino[2,3,4-ij]quinazolin-5-one] | 99.6%
8 | C=CC(=O)N1[C@H](C)CN(c2nc(=O)n3c4c(c(-c5ccc(F)cc5F)c(C(F)(F)F)cc24)SC[C@@H]3COCOC)C[C@@H]1C (atropisomer, axis not shown) [Example 1319, (3S,10S)-7-((3S,5R)-4-acryloyl-3,5-dimethylpiperazin-1-yl)-10-(2,4-difluorophenyl)-3-((methoxymethoxy)methyl)-9-(trifluoromethyl)-2,3-dihydro-5H-[1,4]thiazino[2,3,4-ij]quinazolin-5-one] | 96.3%
9 | C=CC(=O)N1[C@H](C)CN(c2nc(=O)n3c4c(c(-c5ccc(F)cc5F)c(C(F)(F)F)cc24)SC[C@@H]3COCOC)C[C@@H]1C (atropisomer, axis not shown) [Example 1320, (3S,10R)-7-((3S,5R)-4-acryloyl-3,5-dimethylpiperazin-1-yl)-10-(2,4-difluorophenyl)-3-((methoxymethoxy)methyl)-9-(trifluoromethyl)-2,3-dihydro-5H-[1,4]thiazino[2,3,4-ij]quinazolin-5-one] | 97.4%
10 | C=CC(=O)N1C[C@H](C)N(c2nc(=O)n3c4c(c(-c5ccc(F)cc5F)c(C(F)(F)F)cc24)SC[C@@H]3CN2C[C@@H]3C[C@H]2CO3)C[C@H]1C (atropisomer, axis not shown) [Example 1322, (3S,10S)-3-(((1S,4S)-2-oxa-5-azabicyclo[2.2.1]heptan-5-yl)methyl)-7-((2S,5R)-4-acryloyl-2,5-dimethylpiperazin-1-yl)-10-(2,4-difluorophenyl)-9-(trifluoromethyl)-2,3-dihydro-5H-[1,4]thiazino[2,3,4-ij]quinazolin-5-one] | 96.2%
11 | C=CC(=O)N1C[C@H](C)N(c2nc(=O)n3c4c(c(-c5ccc(F)cc5F)c(C(F)(F)F)cc24)SC[C@@H]3CN2C[C@@H]3C[C@H]2CO3)C[C@H]1C (atropisomer, axis not shown) [Example 1323, (3S,10R)-3-(((1S,4S)-2-oxa-5-azabicyclo[2.2.1]heptan-5-yl)methyl)-7-((2S,5R)-4-acryloyl-2,5-dimethylpiperazin-1-yl)-10-(2,4-difluorophenyl)-9-(trifluoromethyl)-2,3-dihydro-5H-[1,4]thiazino[2,3,4-ij]quinazolin-5-one] | 96.1%
12 | C=CC(=O)N1[C@H](C)CN(c2nc(=O)n3c4c(c(-c5ccc(F)cc5F)c(C(F)(F)F)cc24)SC[C@@H]3CN(C)C)C[C@@H]1C (atropisomer, axis not shown) [Example 1324, (3S,10R)-7-((3S,5R)-4-acryloyl-3,5-dimethylpiperazin-1-yl)-10-(2,4-difluorophenyl)-3-((dimethylamino)methyl)-9-(trifluoromethyl)-2,3-dihydro-5H-[1,4]thiazino[2,3,4-ij]quinazolin-5-one] | 82.2%
13 | C=CC(=O)N1[C@H](C)CN(c2nc(=O)n3c4c(c(-c5ccc(F)cc5F)c(C(F)(F)F)cc24)SC[C@@H]3CN(C)C)C[C@@H]1C (atropisomer, axis not shown) [Example 1325, (3S,10S)-7-((3S,5R)-4-acryloyl-3,5-dimethylpiperazin-1-yl)-10-(2,4-difluorophenyl)-3-((dimethylamino)methyl)-9-(trifluoromethyl)-2,3-dihydro-5H-[1,4]thiazino[2,3,4-ij]quinazolin-5-one] | 81.4%
14 | C=CC(=O)N1C[C@H](C)N(c2nc(=O)n3c4c(c(-c5ccc(F)cc5F)c(C(F)(F)F)cc24)SC[C@@H]3COCOC)C[C@H]1C (atropisomer, axis not shown) [Example 1326, (3S,10S)-7-((2S,5R)-4-acryloyl-3,5-dimethylpiperazin-1-yl)-10-(2,4-difluorophenyl)-3-((methoxymethoxy)methyl)-9-(trifluoromethyl)-2,3-dihydro-5H-[1,4]thiazino[2,3,4-ij]quinazolin-5-one] | 82.3%
15 | C=CC(=O)N1C[C@H](C)N(c2nc(=O)n3c4c(c(-c5ccc(F)cc5F)c(C(F)(F)F)cc24)SC[C@@H]3COCOC)C[C@H]1C (atropisomer, axis not shown) [Example 1327, (3S,10R)-7-((2S,5R)-4-acryloyl-3,5-dimethylpiperazin-1-yl)-10-(2,4-difluorophenyl)-3-((methoxymethoxy)methyl)-9-(trifluoromethyl)-2,3-dihydro-5H-[1,4]thiazino[2,3,4-ij]quinazolin-5-one] | 86.3%
